pIC50: −log10 of the molar value. Structures can show the parent of a compound that is named as a salt. Where two headings read alike, the source gives them in different places.
Assays:
[1] = target: T1, [^3H]-dopamine uptake in rat striatal synaptosomes (Rattus norvegicus, UniProt P23977); assay: In vitro [3H]-dopamine uptake in rat striatal synaptosomes; assay type: biochemical
T1 construct: a crude synaptosomal fraction (P2) was prepared by homogenization and centrifugation; from tissue; host or cells: rat striatum, crude synaptosomal fraction (P2)
T1 sequence (P23977 whole entry): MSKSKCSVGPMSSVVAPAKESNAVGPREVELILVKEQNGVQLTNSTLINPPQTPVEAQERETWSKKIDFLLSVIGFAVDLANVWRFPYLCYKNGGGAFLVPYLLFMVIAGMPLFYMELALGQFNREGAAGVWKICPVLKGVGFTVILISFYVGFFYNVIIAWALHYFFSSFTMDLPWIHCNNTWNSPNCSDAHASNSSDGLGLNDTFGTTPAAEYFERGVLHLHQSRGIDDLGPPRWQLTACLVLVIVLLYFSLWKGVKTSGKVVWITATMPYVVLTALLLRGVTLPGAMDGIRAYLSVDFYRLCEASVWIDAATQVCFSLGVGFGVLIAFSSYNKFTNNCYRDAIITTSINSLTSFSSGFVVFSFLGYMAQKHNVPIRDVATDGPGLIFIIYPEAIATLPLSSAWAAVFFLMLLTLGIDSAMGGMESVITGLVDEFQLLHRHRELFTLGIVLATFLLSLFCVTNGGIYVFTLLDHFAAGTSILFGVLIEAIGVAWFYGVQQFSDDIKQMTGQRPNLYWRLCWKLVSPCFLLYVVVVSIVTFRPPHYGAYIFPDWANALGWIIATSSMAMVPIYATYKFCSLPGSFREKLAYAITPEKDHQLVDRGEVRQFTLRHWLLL

| melting point | Structure (SMILES) | further results |
| --- | --- | --- |
| > 250 °C (dec.) | Clc1ccnc2[nH]c(C3CCCNC3)cc12 (centres unmarked) (as salt: HCl) | – |
| > 275 °C (dec.) | C1=C(c2cc3cccnc3[nH]2)CNCC1 (as salt: HCl) [Compound 25, 2-(1,2,5,6-tetrahydro-pyridin-3-yl)-1H-pyrrolo[2,3-b]pyridine] | – |
| 185 °C | c1cnc2[nH]cc(C3CN4CCC3CC4)c2c1 (centres unmarked) [Compound 16, 3-(1H-Pyrrolo[2,3-b]pyridin-3-yl)-1-aza-bicyclo[2.2.2]octane] | – |
| 190 °C | c1cnc2[nH]c(C3CN4CCC3CC4)cc2c1 (centres unmarked) [Compound 21, 3-(1H-Pyrrolo[2,3-b]pyridin-2-yl)-1-aza-bicyclo[2.2.2]octane] | – |

Second part, the molecule before the results:

| Structure (SMILES) | melting point | further results |
| --- | --- | --- |
| CN1CCC[C@H]1Cc1c[nH]c2ncccc12 (stereo in doubt) [Compound 99, (S)-3-(1-Methyl-pyrrolidin-2-ylmethyl)-1H-pyrrolo[2,3-b]pyridine] | – | pIC50 [1]: < 5.00 |
| CN1CCC[C@H]1Cc1cc2cccnc2[nH]1 | 130 to 131 °C | – |
| c1cnc2[nH]cc(C[C@@H]3CCCN3)c2c1 (stereo in doubt) [Compound 97, (S)-3-Pyrrolidin-2-ylmethyl-1H-pyrrolo[2,3-b]pyridine] | – | IC50 ([1]; read-out: Functional activity re-uptake [^3H]-Dopamine pIC50 (converted)): > 10 µM |
| c1cnc2[nH]c(C3CCCNC3)cc2c1 (centres unmarked) | 144 to 145 °C | – |

— patent publication US8252930B2, “Azaindole derivatives with a combination of partial nicotinic acetyl-choline receptor agonism and dopamine reuptake inhibition” (Solvay Pharmaceuticals B.V., priority 2006, dated 2012)
